Consider 1 compound from patent publication US20050118224A1, “Edible pesticidal formulations” (priority 2001, published 2005).

This data set can be described thus: Chlorpyrifos loss from liquid blends with oleophilic phase candidates, 70° C. for 70 h. The format is physicochemical. As to conditions: 1.2 g chlorpyrifos in 9 g candidate, on aluminium foil. The method, then:
1.2 g of chlorpyrifos was added to 9 g of each alternative oleophilic candidate (see Table 14). 1.02 g of this liquid blend was then placed onto aluminium foil within a glass Petrie dish. The control was molten chlorpyrifos alone. Samples were then placed in a fan forced oven at 70° C. for 70 h before being removed and analysed for chlorpyrifos content.

As for `CCOP(=S)(OCC)Oc1nc(Cl)c(Cl)cc1Cl` [No oleophilic phase, chlorpyrifos], the “Chlorpyrifos loss (%)” value is recorded as 37%.
